Target: T1, Tumor necrosis factor receptor superfamily member 6 (Rattus norvegicus) (UniProt Q63199)
T1 sequence (whole entry): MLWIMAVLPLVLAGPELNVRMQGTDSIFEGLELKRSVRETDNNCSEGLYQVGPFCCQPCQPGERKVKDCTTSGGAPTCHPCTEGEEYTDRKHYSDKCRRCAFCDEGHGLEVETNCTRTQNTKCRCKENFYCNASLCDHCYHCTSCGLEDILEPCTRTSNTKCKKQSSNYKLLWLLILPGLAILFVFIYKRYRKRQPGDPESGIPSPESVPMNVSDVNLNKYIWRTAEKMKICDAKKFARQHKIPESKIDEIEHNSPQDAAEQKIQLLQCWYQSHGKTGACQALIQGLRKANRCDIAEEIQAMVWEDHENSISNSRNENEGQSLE
Assay: Inhibition of Fas-mediated cell death in oxygen and glucose deprived rat H9c2 cells at 10 uM treated 30 mins before oxygen and glucose deprivation measured after 6 hrs by DAPI staining
Format: cell-based

Work on `COC(=O)c1c(NC(=O)CSc2ccccc2N)cnn1CCc1ccccc1` yielded an inhibition of 5.4%.

Work on `COC(=O)c1sccc1NC(=O)CSc1cccc(OC)c1` yielded an inhibition of 6.18%.

In the case of `COC(=O)c1nn(CCc2ccccc2)cc1NC(=O)COc1ccc(Br)cc1`, the inhibition is reported as 2.97%.

For `COC(=O)c1cc(Br)cc(Br)c1NC(=O)C(Sc1ccc(Br)cc1)c1ccccc1` (stereo not given), the inhibition was 21.3%.

`O=C(CSc1ccc(Br)cc1)Nc1ccccc1C(=O)O` was tested, and the inhibition was 30.9%.

With `COC(=O)c1ccsc1NC(=O)CSc1ccc(Br)cc1` the inhibition was 9%.

For `COC(=O)c1sccc1NC(=O)CCSc1ccccc1`, the inhibition was 5.24%.

In the case of `O=C(CSc1ccc(Br)cc1)Nc1c(Br)cc(Br)cc1C(=O)O`, the inhibition is reported as 16.1%.

Work on `COC(=O)c1sc2ccccc2c1NC(=O)CCSc1ccc(Br)cc1` yielded an inhibition of 8.57%.

`COC(=O)c1sccc1NC(=O)CSc1ccc(OC)cc1` was tested, and the inhibition was 10.8%.

Work on `COc1cc(NC(=O)CSc2ccc(Br)cc2)c(C2=NCCO2)cc1OC` yielded an inhibition of 11.9%.

Work on `Cc1csc(C(=O)O)c1NC(=O)CSc1ccc(Br)cc1` yielded an inhibition of 14.3%.

For `COC(=O)c1cc(Br)cc(Br)c1NC(=O)CCSc1ccccn1`, the inhibition was 11.4%.

For `COc1cc(C(=O)O)c(NC(=O)CCSc2ccccn2)c(OC)c1OC`, the inhibition was 28.6%.

In the case of `COC(=O)c1nn(CCc2ccccc2)cc1NC(=O)CCc1ccccc1`, the inhibition is reported as 3.99%.

`COC(=O)c1c(NC(=O)CSc2ccc([N+](=O)[O-])cc2)cnn1CCc1ccccc1` was tested, and the inhibition was 4.5%.

For `COC(=O)c1cc(OC)c(OC)c(OC)c1NC(=O)CCSc1ccccn1`, the inhibition was 13.5%.

For `COC(=O)c1sccc1NC(=O)CN(C)c1ccccc1`, the inhibition was 7.57%.

Molecule `COC(=O)c1sc2ncccc2c1NC(=O)CCSc1ccccn1` has an inhibition of 4.95%.

Work on `COC(=O)c1ccc(Cl)cc1NC(=O)CCSc1ccccn1` yielded an inhibition of 12.8%.

`COC(=O)c1oc2cccc(Cl)c2c1NC(=O)CSc1ccc(Br)cc1` gave an inhibition of 14.7%.

`COC(=O)c1sc2ccccc2c1NC(=O)CSc1ccccc1` showed an inhibition of 7.94%.

In the case of `COC(=O)c1sccc1NC(=O)COc1ccc(Br)cc1`, the inhibition is reported as 10.8%.

For `COC(=O)c1cc(OC)c(OC)cc1NC(=O)CCSc1ccccn1`, the inhibition was 17.5%.

`CN(C)C(=O)c1sccc1NC(=O)CSc1ccc(Br)cc1` was tested, and the inhibition was 10.4%.

In the case of `COC(=O)c1sccc1NC(=O)CSc1ccc(Br)cc1`, the inhibition is reported as 4%.

For `O=C(CCSc1ccccn1)Nc1cc(Cl)ccc1C1=NCCO1`, the inhibition was 23.2%.

For `COC(=O)c1ccsc1NC(=O)CCSc1ccc(Br)cc1`, the inhibition was 6.45%.

`COC(=O)c1ccsc1NC(=O)CSc1ccccc1` showed an inhibition of 8.38%.

Work on `O=C(CSc1ccc(Br)cc1)Nc1c(C(=O)O)oc2ccccc12` yielded an inhibition of 8.47%.

With `COC(=O)c1ccccc1NC(=O)CSc1ccccn1` the inhibition was 7.9%.

`COC(=O)c1sccc1NC(=O)CCSc1ccc(Br)cc1` was tested, and the inhibition was 16.9%.

In the case of `O=C(O)c1cc(Cl)ccc1NC(=O)C(Sc1ccc(Br)cc1)c1ccccc1` (stereo not given), the inhibition is reported as 27.4%.

`COC(=O)c1oc2cccc(Cl)c2c1NC(=O)CSc1ccccn1` was tested, and the inhibition was 7.33%.

For `COC(=O)c1ccc(Cl)cc1NC(=O)CSc1ccc(Br)cc1`, the inhibition was 12%.

`COC(=O)c1oc2ccccc2c1NC(=O)CSc1ccc(Br)cc1` gave an inhibition of 7.57%.

With `COC(=O)c1c(NC(=O)CSc2cccc(OC)c2)cnn1CCc1ccccc1` the inhibition was 4.17%.

`COC(=O)c1ccccc1NC(=O)CSc1ccccc1` gave an inhibition of 6.05%.

In the case of `COC(=O)c1sccc1NC(=O)CSc1ccccc1`, the inhibition is reported as 9.48%.

For `COC(=O)c1c(NC(=O)CSc2ccc(Br)cc2)cnn1CCc1ccccc1`, the inhibition was 5.41%.

Source: ChEMBL document CHEMBL2417531, “The discovery of inhibitors of Fas-mediated cell death pathway using the combined computational method” (Bioorg Med Chem Lett, 2013)
